Assay: Solvent for extracting tyramides from dissected tissue
Assay type: physicochemical
Details: extraction of dissected tissue
Procedure: Mature male […] (winged male sexuals) were used in all experiments. Maturity could only be determined upon dissection and determination of whether or not the male's testes were degenerated. This is the key indicator of maturity. See Ball and Vinson, Int. J. Insect Morphol. Embryol. 13:283-294 (1984) for a description and figure of the fire ant male genitalia. Males were discarded if their testes were not degenerated. Dissection of the male reproductive system was carried out in a drop of water. The entire system included pairs of degenerated testes, seminal vesicle, accessory glands, and the single external genitalia. After dissection of the entire system the three sections were further dissected: A) degenerated testes and seminal vesicle; B) accessory glands; and C) external genitalia. […]

CC(=O)NCCc1ccc(O)cc1 [Compound 1, acetyl tyramide]
suitability of methylene chloride as solvent: poor solvent
